Reference: ChEMBL document CHEMBL1137771, “Non-nucleoside inhibitors of HCV polymerase NS5B. Part 2: Synthesis and structure-activity relationships of benzothiazine-substituted quinolinediones” (Bioorg Med Chem Lett, 2009)
In brackets after ≈: the same amount, converted by molar mass.

Columns and labels:
[1] = Clearance in rat at 2 mg/kg, iv; assay type: ADME, organism-based; design: dose 2 mg/kg, route intravenous; settings: in vivo
[2] = Cmax in male rat at 10 mg/kg, po after 1 day; assay type: ADME, organism-based; design: dose 10 mg/kg, route oral; settings: in vivo
[3] = AUC in male rat at 10 mg/kg, po after 7 days; assay type: ADME, organism-based; design: dose 10 mg/kg, route oral; settings: plasma
[4] = Cmin (24 hrs) in male rat at 500 mg/kg, po after 1 day; assay type: ADME, organism-based; design: dose 500 mg/kg, route oral; settings: in vivo, read-out: Cmin
[5] = AUC in male rat at 500 mg/kg, po after 7 days; assay type: ADME, organism-based; design: dose 500 mg/kg, route oral; settings: plasma
[6] = Solubility of the compound; assay type: physicochemical
[7] = Clearance in dog at 1 mg/kg, iv; assay type: ADME, organism-based, Canis lupus familiaris; design: dose 1 mg/kg, route intravenous; settings: in vivo
[8] = Cmax in female rat at 100 mg/kg, po after 1 day; assay type: ADME, organism-based; design: dose 100 mg/kg, route oral; settings: in vivo
[9] = AUC in female rat at 100 mg/kg, po after 7 days; assay type: ADME, organism-based; design: dose 100 mg/kg, route oral; settings: plasma
[10] = Cmin (24 hrs) in female rat at 500 mg/kg, po after 1 day; assay type: ADME, organism-based; design: dose 500 mg/kg, route oral; settings: in vivo, read-out: Cmin
[11] = Cmax in female dog at 2 mg/kg, po dosed as normal particles; assay type: ADME, organism-based, Canis lupus familiaris; design: dose 2 mg/kg, route oral; settings: in vivo
Hepatitis C virus [12] = assay: Antiviral activity against HCV genotype 1b isolate con1 infected in human 2209-23 cells assessed as inhibition of [3H]thymidine incorporation into DNA by scintillation proximity assay in presence of 40% human serum albumin; assay type: functional, organism-based, Hepacivirus hominis; settings: isolate Con1, 2209-23
[13] = Cmax in male rat at 10 mg/kg, po after 7 days; assay type: ADME, organism-based; design: dose 10 mg/kg, route oral; settings: in vivo
[14] = Cmax in dog at 1 mg/kg, iv; assay type: ADME, organism-based, Canis lupus familiaris; design: dose 1 mg/kg, route intravenous; settings: in vivo
[15] = Cmax in rat at 2 mg/kg, iv; assay type: ADME, organism-based; design: dose 2 mg/kg, route intravenous; settings: in vivo
[16] = Cmax in male rat at 100 mg/kg, po after 1 day; assay type: ADME, organism-based; design: dose 100 mg/kg, route oral; settings: in vivo
[17] = AUC (0 to 24 hrs) in male rat at 10 mg/kg, po after 1 day; assay type: ADME, organism-based; design: time < 24 hr, dose 10 mg/kg, route oral; settings: plasma
[18] = Cmax in female rat at 500 mg/kg, po after 7 days; assay type: ADME, organism-based; design: dose 500 mg/kg, route oral; settings: in vivo
[19] = AUC in female rat at 10 mg/kg, po after 7 days; assay type: ADME, organism-based; design: dose 10 mg/kg, route oral; settings: plasma
[20] = Cmax in male rat at 500 mg/kg, po after 1 day; assay type: ADME, organism-based; design: dose 500 mg/kg, route oral; settings: in vivo
[21] = Drug concentration in rat liver at 5 mg/kg, po after 6 hrs; assay type: ADME, organism-based; design: dose 5 mg/kg, route oral; settings: read-out: Drug uptake
[22] = Cmax in female dog at 2 mg/kg, po dosed as nanosized particles; assay type: ADME, organism-based, Canis lupus familiaris; design: dose 2 mg/kg, route oral; settings: in vivo
[23] = Cmax in male rat at 100 mg/kg, po after 7 days; assay type: ADME, organism-based; design: dose 100 mg/kg, route oral; settings: in vivo
[24] = AUC (0 to 24 hrs) in male rat at 100 mg/kg, po after 1 day; assay type: ADME, organism-based; design: time < 24 hr, dose 100 mg/kg, route oral; settings: plasma
Hepatitis C virus [25] = assay: Antiviral activity against HCV genotype 1b isolate con1 infected in human 2209-23 cells assessed as inhibition of [3H]thymidine incorporation into DNA by scintillation proximity assay in presence of 5% fetal bovine serum; assay type: functional, organism-based, Hepacivirus hominis; settings: isolate Con1, 2209-23
[26] = Cmax in female dog at 2 mg/kg administered intraduodenally as cannula dose; assay type: ADME, organism-based, Canis lupus familiaris; design: dose 2 mg/kg, route intraduodenal; settings: in vivo
[27] = Cmax in dog at 1 mg/kg, po; assay type: ADME, organism-based, Canis lupus familiaris; design: dose 1 mg/kg, route oral; settings: in vivo
[28] = AUC in dog at 1 mg/kg, po; assay type: ADME, organism-based, Canis lupus familiaris; design: dose 1 mg/kg, route oral; settings: plasma
[29] = Cmax in female rat at 100 mg/kg, po after 7 days; assay type: ADME, organism-based; design: dose 100 mg/kg, route oral; settings: in vivo
[30] = Toxicity in rat assessed as adverse effects after 7 days; assay type: organism-based; settings: in vivo
[31] = AUC (0 to 24 hrs) in male rat at 500 mg/kg, po after 1 day; assay type: ADME, organism-based; design: time < 24 hr, dose 500 mg/kg, route oral; settings: plasma
[32] = Drug concentration in rat liver at 5 mg/kg, po after 2 hrs; assay type: ADME, organism-based; design: dose 5 mg/kg, route oral; settings: read-out: Drug uptake
[33] = AUC in dog at 1 mg/kg, iv; assay type: ADME, organism-based, Canis lupus familiaris; design: dose 1 mg/kg, route intravenous; settings: plasma
Caco-2 = assay: Efflux ratio of permeability from […] side in human Caco-2 cells after 21 days; assay type: ADME, cell-based; settings: caco-2, 504 h
[34] = AUC (0 to 24 hrs) in female rat at 500 mg/kg, po after 1 day; assay type: ADME, organism-based; design: time < 24 hr, dose 500 mg/kg, route oral; settings: plasma
Hepatocyte = assay: Metabolic stability in rat hepatocytes assessed per 10^6 cells; assay type: ADME, cell-based
[35] = AUC in female rat at 500 mg/kg, po after 7 days; assay type: ADME, organism-based; design: dose 500 mg/kg, route oral; settings: plasma
[36] = Cmax in rat at 5 mg/kg, po; assay type: ADME, organism-based; design: dose 5 mg/kg, route oral; settings: in vivo
[37] = Cmin (24 hrs) in female rat at 100 mg/kg, po after 1 day; assay type: ADME, organism-based; design: dose 100 mg/kg, route oral; settings: in vivo, read-out: Cmin
Hepatitis C virus [38] = assay: Ratio of EC50 for HCV genotype 1b isolate con1 in presence of human serum albumin to EC50 for HCV genotype 1b isolate con1 in presence of fetal bovine serum; assay type: functional, Hepacivirus hominis
[39] = Half life in dog at 1 mg/kg, iv; assay type: ADME, organism-based, Canis lupus familiaris; design: dose 1 mg/kg, route intravenous; settings: in vivo
[40] = Ratio of drug level from liver to plasma in po dosed rat after 24 hrs; assay type: ADME, organism-based
[41] = Half life in rat at 2 mg/kg, iv; assay type: ADME, organism-based; design: dose 2 mg/kg, route intravenous; settings: in vivo
[42] = AUC (0 to 24 hrs) in female rat at 10 mg/kg, po after 1 day; assay type: ADME, organism-based; design: time < 24 hr, dose 10 mg/kg, route oral; settings: plasma
[43] = Half life in dog at 1 mg/kg, po; assay type: ADME, organism-based, Canis lupus familiaris; design: dose 1 mg/kg, route oral; settings: in vivo
[44] = AUC in male rat at 100 mg/kg, po after 7 days; assay type: ADME, organism-based; design: dose 100 mg/kg, route oral; settings: plasma
[45] = AUC in rat at 2 mg/kg, iv; assay type: ADME, organism-based; design: dose 2 mg/kg, route intravenous; settings: plasma
[46] = Cmax in male rat at 500 mg/kg, po after 7 days; assay type: ADME, organism-based; design: dose 500 mg/kg, route oral; settings: in vivo
[47] = Cmax in female rat at 10 mg/kg, po after 7 days; assay type: ADME, organism-based; design: dose 10 mg/kg, route oral; settings: in vivo
serum albumin = serum albumin (Homo sapiens, UniProt P02768); assay: Binding affinity to human serum albumin; assay type: ADME; settings: read-out: PB (converted)
serum albumin, sequence (P02768 whole entry): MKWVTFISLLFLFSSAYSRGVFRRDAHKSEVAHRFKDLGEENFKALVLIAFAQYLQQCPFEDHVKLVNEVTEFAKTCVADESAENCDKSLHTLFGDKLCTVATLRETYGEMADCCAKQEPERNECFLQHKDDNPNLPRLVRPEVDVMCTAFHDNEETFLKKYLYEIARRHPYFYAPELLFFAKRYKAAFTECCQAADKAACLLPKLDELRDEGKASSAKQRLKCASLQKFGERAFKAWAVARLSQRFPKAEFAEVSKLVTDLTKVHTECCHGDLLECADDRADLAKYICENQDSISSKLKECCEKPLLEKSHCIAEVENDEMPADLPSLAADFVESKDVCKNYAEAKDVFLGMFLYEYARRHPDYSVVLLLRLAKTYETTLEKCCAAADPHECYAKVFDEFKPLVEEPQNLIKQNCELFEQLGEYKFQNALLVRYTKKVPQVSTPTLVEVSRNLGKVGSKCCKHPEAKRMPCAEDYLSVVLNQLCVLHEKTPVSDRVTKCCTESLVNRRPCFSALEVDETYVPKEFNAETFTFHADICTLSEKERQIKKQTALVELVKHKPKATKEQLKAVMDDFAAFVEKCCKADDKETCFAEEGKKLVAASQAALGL

Hepatitis C virus [48] = assay: Inhibition of HCV genotype 1b isolate con1 NS5B polymerase assessed as incorporation of radiolabeled nucleotide into RNA product; design: species or system Hepacivirus hominis
[49] = Metabolic stability in rat liver microsomes; assay type: ADME, Microsome; settings: read-out: Stability
[50] = Cmax in female rat at 10 mg/kg, po after 1 day; assay type: ADME, organism-based; design: dose 10 mg/kg, route oral; settings: in vivo
[51] = Cmax in female rat at 500 mg/kg, po after 1 day; assay type: ADME, organism-based; design: dose 500 mg/kg, route oral; settings: in vivo
[52] = Cmin (24 hrs) in male rat at 100 mg/kg, po after 1 day; assay type: ADME, organism-based; design: dose 100 mg/kg, route oral; settings: in vivo, read-out: Cmin
[53] = Cytotoxicity against human 2209-23 cells by WST1 assay; assay type: cell-based
[54] = AUC (0 to 24 hrs) in female rat at 100 mg/kg, po after 1 day; assay type: ADME, organism-based; design: time < 24 hr, dose 100 mg/kg, route oral; settings: plasma
[55] = Metabolic stability in dog liver microsomes; assay type: ADME, Canis lupus familiaris, Microsome; settings: read-out: Stability

- clearance [1]: 186 mL/min/kg
- Cmax [2]: 2.06 ng/mL
- AUC at 168 h [3]: 34.4 ng·h/mL
- concentration at 24 h [4]: 11.3 ng/mL
- AUC at 168 h [5]: 1910 ng·h/mL
- solubility [6]: 6.7 µg/mL (≈ 11.7 µM)
- clearance [7]: 19 mL/min/kg
- Cmax [8]: 13 ng/mL
- AUC at 168 h [9]: 299 ng·h/mL
- concentration at 24 h [10]: 1.3 ng/mL
- Cmax [11]: < 15 ng/mL
- EC50 (Hepatitis C virus [12]): 88 nM
- Cmax [13]: 2.76 ng/mL
- Cmax [14]: 4350 ng/mL
- Cmax [15]: 130 ng/mL
- Cmax [16]: 20.4 ng/mL
- AUC(0-t) at 24 h [17]: 25.4 ng·h/mL
- Cmax [18]: 89.3 ng/mL
- AUC at 168 h [19]: 21.2 ng·h/mL
- Cmax [20]: 93.2 ng/mL
- concentration at 6 h [21]: 22 ng/g
- Cmax [22]: < 15 ng/mL
- Cmax [23]: 21.1 ng/mL
- AUC(0-t) at 24 h [24]: 223 ng·h/mL
- EC50 (Hepatitis C virus [25]): 23 nM
- Cmax [26]: < 15 ng/mL
- Cmax [27]: 10.6 ng/mL
- AUC [28]: 34.8 ng·h/mL
- Cmax [29]: 15.8 ng/mL
- AUC(0-t) at 24 h [31]: 821 ng·h/mL
- concentration at 2 h [32]: 151 ng/g
- AUC [33]: 954 ng·h/mL
- Ratio (Caco-2): 3.78
- AUC(0-t) at 24 h [34]: 701 ng·h/mL
- Stability (Hepatocyte): 1.6 µL/min
- AUC at 168 h [35]: 1470 ng·h/mL
- Cmax [36]: 2 ng/mL
- concentration at 24 h [37]: 2.1 ng/mL
- half-life [39]: 1.6 h
- Kp at 24 h [40]: 10
- half-life [41]: 1.1 h
- AUC(0-t) at 24 h [42]: 25.6 ng·h/mL
- half-life [43]: 1.2 h
- AUC at 168 h [44]: 322 ng·h/mL
- AUC [45]: 158 ng·h/mL
- Cmax [46]: 152 ng/mL
- Cmax [47]: 2.8 ng/mL
- fraction unbound (serum albumin): 0.002
- IC50 (Hepatitis C virus [48]): 13 nM
- microsomal CLint [49]: 126 µL/min/mg
- Cmax [50]: 3.26 ng/mL
- Cmax [51]: 48.2 ng/mL
- concentration at 24 h [52]: 2.8 ng/mL
- AUC(0-t) at 24 h [54]: 116 ng·h/mL
- microsomal CLint [55]: 24 µL/min/mg
Structure (SMILES): Cc1cc(Cn2c(=O)c(C3=CS(=O)(=O)c4cc(NS(C)(=O)=O)ccc4N3)c(O)c3cc(F)ccc32)ccc1F
- NOAEL at 168 h [30]: > 500 mg/kg/day
- fold change (FC) (Hepatitis C virus [38]): 9.2
- CC50 [53]: > 50000 nM
